# Experimental data: patent US12583818B2 (DAEGU-GYEONGBUK MEDICAL INNOVATION FOUNDATION, priority 2020, dated 2026)
# Like-named read-outs stand apart in the source and are kept apart here.
# How the values were obtained:
# Pin1 = target: T1, Pin1 (Homo sapiens, UniProt Q13526); assay: Evaluation of Pin1 enzyme inhibitory activity (Sensolyte Green Pin1 assay kit); assay type: biochemical
# T1 construct: purchased Anaspec
# Summary of the method: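 Pin1 activity was measured with a fluorogenic kit assay (Sensolyte Green) using substrate prepared at 1 μM and protein at 50 μg/ml, both pre-mix concentrations. Compound working solutions were 100, 10, 1 or 0.1 μM, and reactions ran 2 h at room temperature in the dark, read at 490/520 nm. Inhibition was graded A–D by concentration.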
# [1] = system: MDA-MB 231 triple negative breast cancer cell line; assay: MDA-MB 231 protein expression inhibition (Western blotting, cycline D1 vs Vinculin); assay type: cell-based; settings: Homo sapiens, compound 10 μM, 72 hours, cycline D1 Western blot, read-out: MBA-MB-231 (amount of the protein compared to the DMSO-treated control group)
# Experimental: In order to confirm the ability of the compound represented by formula 1 according to the present invention to inhibit the protein expression of MDA-MB 231 triple negative breast cancer cell line, the following experiment was performed, and the results are shown in Table 3 below.
# MDA-MB-231 cells were cultured in a 5% CO2 incubator at 37° C. using RPMI medium supplemented with 10% FBS and 1% penicillin/streptomycin.
# The cells were washed with PBS once a day, and then replaced with a new medium. The cells grown at the density of at least 90% 1 day before the experiment were detached using trypsin/EDTA, and then plated at the density of 100,000 per well in a 6-well plate.
# On the next day of culture, the compound prepared in each example was treated at a concentration of 10 μM, and DMSO was treated at a concentration of 0.1% of the total as the control, followed by incubation for 72 hours. After 72 hours, the cells were washed twice with PBS, collected by scraping, and centrifuged at 13,000 rpm for 3 minutes to remove all the supernatant and only cells were taken.
# RIPA buffer (containing 1× protease inhibitor and phosphatase inhibitor) was added to the prepared cells (80 μl/well), and the plate was shaken once every 5 minutes to disrupt the cells for a total of 15 minutes. The disrupted cells were centrifuged at 13,000 rpm for 15 minutes to collect only the supernatant protein. The obtained protein was quantified using a BCA protein quantification kit (Pierece, MA, USA), and a total of 10 μg of the protein was used for Western blotting.
# The protein sample was isolated by 10% SDS-PAGE, and transferred to a PVDF membrane. Anti-human cycline D1 antibody (Cell signal) and anti-Vinculin antibody were bound to the protein sample, and the expression of the protein was measured by using an ECL reagent and LAS4000 equipment. The measurement results were quantified and generalized using ImageJ. The results are shown in Table 3 below by dividing the grades A to D according to the amount of the protein compared to the DMSO-treated control group.
# [2] = system: MCF7 cells (breast cancer cells); assay: Cell viability of MCF7 cells (Cell-titer Glo); assay type: cell-based; settings: Homo sapiens
# Experimental: (§1) In order to confirm the inhibitory effect of the compound represented by formula 1 according to the present invention on the growth of MCF7, MCF7-SP, A2780 or A2780-SP cells, the following experiment was performed, and the results are shown in Tables 4 and 5 below.
# MCF7 cells (breast cancer cells) were plated in a 96-well plate at the density of 3000 viable cells per well, and cultured in DMEM/High glucose medium supplemented with 10% FBS and 1% penicillin/streptomycin.
# (§2) On the next day of culture, the cells were treated with the compound of Example 71, 76, 80, 84, 92, 99, 100 or 119, followed by culture for 3 days. Cell viability was evaluated by Cell-titer Glo (Promega, WC, USA), and luciferase activity was detected using a Tecan plate reader (Biocompare, USA).
# [3] = system: MCF7-SP cells (breast cancer stem cells); assay: Sphere cell viability of MCF7-SP cells (Cell-titer Glo); assay type: cell-based
# Experimental: as §1
# On the other hand, MCF7-SP cells (breast cancer stem cells) were plated in an Ultra-Low Attachment round bottom 96-well plate (corning) at the density of 1,500 viable cells per well, and cultured in cancer stem cell medium. The cancer stem cell medium is composed of the neurobasal medium supplemented with 20 ng/ml of bFGF, 10 ng/ml of EGF, 2.5 […], HEPES, Glutamax and B27.
# as §2, with “for 8” for “for 3”, “days. The medium containing the compound was added thereto once again on the 4th day. Sphere cell” for “days. Cell”
# [4] = system: A2780 cells (ovarian cancer cells); assay: Cell viability of A2780 cells (Cell-titer Glo); assay type: cell-based; settings: Homo sapiens
# Summary of the method: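 A2780 ovarian cancer cells seeded at 3000 viable cells/well in RPMI-1640 with 10% FBS, dosed the next day and grown 3 days. Viability measured by Cell-titer Glo luminescence.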
# [5] = system: A2780-SP cells (ovarian cancer stem cells); assay: Sphere cell viability of A2780-SP cells (Cell-titer Glo); assay type: cell-based
# Summary of the method: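 A2780-SP ovarian cancer stem cells grown as spheres in ultra-low-attachment wells (1,500 cells/well) in neurobasal stem-cell medium with bFGF, EGF, B27. Compound added the day after plating, re-dosed on day 4, 8-day culture total; viability by CellTiter-Glo luminescence.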
# [6] = Table 2, read-out: concentration at which Pin1 inhibitory activity was exhibited
# [7] = concentration at which the Pin1 enzyme activity is inhibited, 2 hours at room temperature, fluorescence 490 nm/520 nm, read-out: Pin 1 inhibition
# [8] = 72 h, cell viability, culture for 3 days, read-out: MCF7
# [9] = 192 h, sphere cell viability, culture for 8 days, read-out: MCF7-SP
# [10] = 72 h, cell viability, culture for 3 days, read-out: A2780
# [11] = 192 h, sphere cell viability, culture for 8 days, read-out: A2780-SP
# [12] = Table 5, read-out: the concentration (second list of b710, cell line not named; matches A2780-SP column)
# [13] = MCF7, text summary of Table 4, read-out: MCF7 cell concentration
# [14] = text summary of Table 4, read-out: MCF7-SP cell concentration
# [15] = A2780, Table 5, read-out: A2780 cell concentration
# T1 sequence (Q13526 whole entry): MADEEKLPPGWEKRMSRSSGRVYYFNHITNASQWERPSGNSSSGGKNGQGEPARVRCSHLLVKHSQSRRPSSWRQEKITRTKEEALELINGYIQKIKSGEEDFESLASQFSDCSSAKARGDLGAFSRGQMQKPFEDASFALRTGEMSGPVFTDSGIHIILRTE
SMILES,IC50 (Pin1; [6]),IC50 (Pin1; [7]),"IC50 [2, 8]","IC50 [3, 9]","IC50 [4, 10]","IC50 [5, 11]","IC50 [5, 12]","IC50 [2, 13]","IC50 [3, 14]","IC50 [4, 15]",activity at 10 µM [1]
"O=S(=O)(NCCCc1c[nH]c2ccc(Cl)cc12)c1ccc(OCCCN2CCC(O)CC2)cc1 [Example 75, N-(3-(5-chloro-1H-indol-3-yl)propyl)-4-(3-(4-hydroxypiperidin-1-yl)propoxy)benzenesulfonamide]",< 1000 nM,< 1000 nM,1000 to 10000 nM,> 10000 nM,1000 to 10000 nM,1000 to 10000 nM,,< 10000 nM,,< 10000 nM,0 to 35%
"CN1CCN(c2cccc(Oc3ccc(S(=O)(=O)NCCCc4c[nH]c5ccc(Cl)cc45)cc3)c2)CC1 [Example 118, N-(3-(5-chloro-1H-indole-3-yl)propyl)-4-(3-(4-methylpiperazine-1-yl)phenoxy)benzenesulfonamide]",< 1000 nM,< 1000 nM,1000 to 10000 nM,1000 to 10000 nM,> 10000 nM,< 1000 nM,< 1000 nM,< 10000 nM,< 10000 nM,,50 to 70%
"CN1CCN(CCCNc2ccc(S(=O)(=O)NCCCc3c[nH]c4ccc(Cl)cc34)cc2)CC1 [Example 98, N-(3-(5-chloro-1H-indole-3-yl)propyl)-4-((3-(4-methylpiperazine-1-yl)propyl)amino)benzenesulfonamide]",< 1000 nM,< 1000 nM,> 10000 nM,> 10000 nM,1000 to 10000 nM,1000 to 10000 nM,,,,< 10000 nM,0 to 35%
"O=S(=O)(NCCCc1c[nH]c2ccc(Cl)cc12)c1ccc(OCCCN2CCNCC2)cc1 [Example 70, N-(3-(5-chloro-1H-indol-3-yl)propyl)-4-(3-(piperazin-1-yl)propoxy)benzenesulfonamide]",< 1000 nM,< 1000 nM,1000 to 10000 nM,1000 to 10000 nM,1000 to 10000 nM,< 1000 nM,< 1000 nM,< 10000 nM,< 10000 nM,< 10000 nM,0 to 35%

# More lines, main results first:
IC50 (Pin1; [6]),IC50 (Pin1; [7]),"IC50 [2, 8]","IC50 [3, 9]","IC50 [4, 10]","IC50 [5, 11]","IC50 [5, 12]","IC50 [2, 13]","IC50 [3, 14]","IC50 [4, 15]",SMILES,activity at 10 µM [1]
< 1000 nM,< 1000 nM,> 10000 nM,> 10000 nM,> 10000 nM,< 1000 nM,< 1000 nM,,,,"O=S(=O)(NCCCc1c[nH]c2ccc(Cl)cc12)c1ccc(OCCCN2CCNCC2)nc1 [Example 79, N-(3-(5-chloro-1H-indole-3-yl)propyl)-6-(3-(piperazine-1-yl)propoxy)pyridine-3-sulfonamide]",0 to 35%
< 1000 nM,< 1000 nM,1000 to 10000 nM,1000 to 10000 nM,1000 to 10000 nM,< 1000 nM,< 1000 nM,< 10000 nM,< 10000 nM,< 10000 nM,"CN1CCCN(CCCOc2ccc(S(=O)(=O)NCCCc3c[nH]c4ccc(Cl)cc34)cc2)CC1 [Example 83, N-(3-(5-chloro-1H-indol-3-yl)propyl)-4-(3-(4-methyl-1,4-diazepan-1-yl)propoxy)benzenesulfonamide]",0 to 35%
< 1000 nM,< 1000 nM,1000 to 10000 nM,1000 to 10000 nM,> 10000 nM,< 1000 nM,< 1000 nM,< 10000 nM,< 10000 nM,,"O=S(=O)(NCCCc1c[nH]c2ccc(Cl)cc12)c1ccc(CCCCN2CCNCC2)cc1 [Example 91, N-(3-(5-chloro-1H-indol-3-yl)propyl)-4-(4-(piperazin-1-yl)butyl)benzenesulfonamide]",0 to 35%
< 1000 nM,< 1000 nM,1000 to 10000 nM,1000 to 10000 nM,1000 to 10000 nM,< 1000 nM,< 1000 nM,< 10000 nM,< 10000 nM,< 10000 nM,"O=S(=O)(NCCCc1c[nH]c2ccc(Cl)cc12)c1ccc(CCCCC2CCNCC2)cc1 [Example 99, N-(3-(5-chloro-1H-indole-3-yl)propyl)-4-(4-(piperidine-4-yl)butyl)benzenesulfonamide]",0 to 35%
